We go through 45 molecules from ChEMBL document CHEMBL5512615, “Targeting autophagy drug discovery: Targets, indications and development trends” (Eur J Med Chem, 2024).

The target in test [1] is T1, Testis-expressed protein 264 (Homo sapiens, UniProt Q9Y6I9).
T1 sequence (Q9Y6I9 whole entry): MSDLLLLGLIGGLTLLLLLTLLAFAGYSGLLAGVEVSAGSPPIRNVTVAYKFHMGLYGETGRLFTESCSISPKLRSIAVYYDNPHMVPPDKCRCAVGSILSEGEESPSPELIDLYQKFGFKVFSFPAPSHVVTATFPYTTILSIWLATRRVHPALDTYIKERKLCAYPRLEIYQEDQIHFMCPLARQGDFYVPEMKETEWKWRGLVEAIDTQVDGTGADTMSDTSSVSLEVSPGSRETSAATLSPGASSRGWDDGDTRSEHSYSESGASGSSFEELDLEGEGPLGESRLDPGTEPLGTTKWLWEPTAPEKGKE
Description: Inhibition of TEX264 (unknown origin)

Test [2] is described as follows: cells. As to conditions: Homo sapiens, NCI-H1975.
Description: Inhibition of MAPK/ERK signaling pathway in human NCI-H1975 cells
For test [3], the target named is Tubulin. As to conditions: k562.
Description: Inhibition of microtubule polymerization in human K562 cells measured for 60 mins by fluorescence based analysis
For test [4], the target named is T2, 5'-AMP-activated protein kinase catalytic subunit alpha-2 (Homo sapiens, UniProt P54646).
Test [5] can be described thus: cells. As to conditions: Homo sapiens, HK-2, 6 h.
Description: Downregulation of BNIP3 expression in human HK-2 cells incubated for 6 hrs by Western blot analysis
Test [6] relates to HCT-116. Put plainly: cells. As to conditions: Homo sapiens, HCT-116, 24 h.
Description: Induction of autophagy in human HCT-116 cells assessed as increase in p62 expression upto 5 uM incubated for 24 hrs by Western blot analysis
The target in test [7] is T2, 5'-AMP-activated protein kinase catalytic subunit alpha-2. The source holds these as a separate data set.
Description: Agonist activity at AMPK (unknown origin)
The target in test [8] is Phosphatidylinositol 3-kinase catalytic subunit type 3 (Homo sapiens, UniProt Q8NEB9).
Description: Inhibition of human PIK3C3 using PI as substrate by ADP-Glo assay
Test [9] addresses T3, Phosphatidylinositol 4,5-bisphosphate 3-kinase catalytic subunit alpha isoform (Homo sapiens, UniProt P42336).
Description: Inhibition of PI3Kalpha (unknown origin) by kinase profiling assay
In test [10] the target is T4, Translocator protein (Mus musculus, UniProt P50637). The test is described as follows: Binding affinity to mouse TSPO expressed in Escherichia coli assessed as inhibition constant.
The target in test [11] is T5, Tumour suppressor protein p53/Mdm4 (Homo sapiens, UniProt O15151+P04637).
Description: Binding affinity to MDM4/p53 interaction (unknown origin) assessed as inhibition constant
Test [12] concerns the target T5, Tumour suppressor protein p53/Mdm4. The source holds these as a separate data set.
Description: Inhibition of MDM4/p53 (unknown origin)
The nature of test [13]: cells. The conditions noted are these: Homo sapiens, PC-3.
Description: Inhibition of V-ATPase activity in lysosomes of human PC-3 cells
Test [14] has as its target T2, 5'-AMP-activated protein kinase catalytic subunit alpha-2. This is another data set of the same source.
Description: Inhibition of AMPK signalling pathway in human HepG2 cells
In test [15] the target is Tumour suppressor p53/oncoprotein Mdm2 (Homo sapiens, UniProt P04637+Q00987).
Description: Inhibition of MDM2/p53 interaction (unknown origin)
In test [16] the target is T2, 5'-AMP-activated protein kinase catalytic subunit alpha-2. The source holds these as a separate data set.
Description: Binding affinity to AMPK (unknown origin) assessed as inhibition constant
Test [17] concerns the target T6, Cysteine protease ATG4B (Homo sapiens, UniProt Q9Y4P1).
T6 sequence (Q9Y4P1 whole entry): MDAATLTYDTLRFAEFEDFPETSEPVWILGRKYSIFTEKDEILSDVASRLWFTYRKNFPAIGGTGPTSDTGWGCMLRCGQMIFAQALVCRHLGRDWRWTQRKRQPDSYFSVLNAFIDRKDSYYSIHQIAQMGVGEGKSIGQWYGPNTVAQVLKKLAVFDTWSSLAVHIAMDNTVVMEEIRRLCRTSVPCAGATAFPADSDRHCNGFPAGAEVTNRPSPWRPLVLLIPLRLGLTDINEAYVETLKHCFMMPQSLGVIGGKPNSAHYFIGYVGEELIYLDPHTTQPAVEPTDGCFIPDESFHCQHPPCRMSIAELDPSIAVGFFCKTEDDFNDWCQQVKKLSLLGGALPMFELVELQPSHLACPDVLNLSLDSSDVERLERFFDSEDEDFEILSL
Description: Inhibition of ATG4B (unknown origin) using pim-FG-PABA-AMC as substrate by fluorescence based assay

Test [18] relates to PC-12. The test is described as follows: cells. The conditions noted are these: Rattus norvegicus.
Description: Neuroprotective activity against rat PC12 cells assessed as decrease in H2O2-induced intracellular Ca2+ level preincubated for 12 hrs followed by H2O2-stimulation and measured after 12 hrs by Fluo-3 AM dye based flow cytometry
In test [19] the target is Translocator protein (Rattus norvegicus, UniProt P16257).
Test [20] has as its target T3, Phosphatidylinositol 4,5-bisphosphate 3-kinase catalytic subunit alpha isoform. This is another data set of the same source.
Description: Inhibition of PI3Kalpha (unknown origin)
Test [21] addresses T4, Translocator protein.
Test [22] addresses T2, 5'-AMP-activated protein kinase catalytic subunit alpha-2. The source holds these as a separate data set.
Description: Inhibition of AMPK (unknown origin)

Where a SMILES comes first, the peptide text is derived from it. [ ]: non-standard residue; d: D form. pY = N[C@@H](Cc1ccc(OP(=O)(O)O)cc1)C(=O)O

Regarding `O=C(Oc1cccc(/C=N/Nc2nc(Nc3ccccc3)nc(N3CCOCC3)n2)c1)c1ccco1`, 10 nM corresponded to half-maximal inhibition in test [1] (IC50). As to `CC[C@@H]1[C@@H](C)O[C@@](O)([C@@H](C)[C@H](O)[C@H](C)[C@H]2OC(=O)/C=C/C=C/[C@H](C)[C@@H]([C@@H](C)[C@@H](O)[C@H](C)[C@@]3(O)C[C@@H](O[C@H]4C[C@H](O)[C@H](O)[C@H](C)O4)[C@H](CC)[C@@H](C)O3)OC(=O)/C=C/C=C/[C@@H]2C)C[C@H]1O[C@H]1C[C@H](O)[C@H](O)[C@H](C)O1`, in [2], the IC50 (commonly the concentration needed to halve the response being measured) turned out to be 4.2 nM.

Regarding `CCOC(=O)c1[nH]c(Br)c(-c2ccc(OC)c(OC)c2)c1Br`, the IC50 in test [3] worked out at 360 nM.

The molecule `CNC(=O)c1ccccc1Oc1nc(Nc2cc(OC)c(OC)c(OC)c2)ncc1Br` yielded an IC50 in [4] of 108 nM. `Cc1ccc(NC(=O)NCc2ccc3c(c2)CN(C2CCC(=O)NC2=O)C3=O)cc1Cl` (stereo not given) gave an IC50 in test [5] of 2 nM. For `CC(=O)N[C@@H](CC(C)C)C(=O)N[C@@H](CC(C)C)C(=O)N[C@H](C=O)CCCNC(=N)N`, the midpoint of inhibition in test [6], the IC50, lay at 2500 nM. On to `N#CC1C(=O)Nc2scc(-c3ccc(-c4ccccc4O)cc3)c2C1=O` (stereo not given), for which the EC50 (as a rule, the concentration needed to bring the measured effect to its halfway point) in test [7] is 800 nM. With `CN(Cc1ccccc1)S(=O)(=O)c1cc(C(=O)O)c(NCc2ccco2)cc1Cl`, the IC50 in [1] is 15 nM.

Consider `CC(=O)O[C@H]1C(=O)[C@]2(C)[C@H](O)C[C@H]3OC[C@@]3(OC(C)=O)[C@H]2[C@H](OC(=O)c2ccccc2)[C@]2(O)C[C@H](OC(=O)[C@H](O)[C@@H](NC(=O)c3ccccc3)c3ccccc3)C(C)=C1C2(C)C`, for which the IC50 in test [2] stood at 5 nM. On to `C[C@@H]1COCCN1c1cc(N2CCCC[C@@H]2C(F)(F)F)[nH]c(=O)c1`, for which 14 nM corresponded to half-maximal inhibition in [8] (IC50). `BrNc1nc(N/N=C\c2c[nH]c3ccccc23)nc(N2CCOCC2)n1`: in [6], half-maximal inhibition (IC50) required 300 nM. In test [7], `OCc1c(C2CC2)nc2ccccc2c1-c1ccc(F)cc1` returned an EC50 of 300 nM. For the molecule `CC[C@H](C)[C@H](NC(=O)[C@H](CCCCN)NC(=O)[C@@H](NC(=O)[C@H](CCC(N)=O)NC(=O)[C@@H](N)CCCNC(=N)N)[C@@H](C)CC)C(=O)N[C@@H](Cc1c[nH]c2ccccc12)C(=O)N[C@@H](Cc1ccccc1)C(=O)N[C@@H](CCC(N)=O)C(=O)N[C@@H](CC(N)=O)C(=O)N[C@@H](CCCNC(=N)N)C(=O)N[C@@H](CCCNC(=N)N)C(=O)N[C@@H](CCSC)C(=O)N[C@@H](CCCCN)C(=O)N[C@@H](Cc1c[nH]c2ccccc12)C(=O)N[C@@H](CCCCN)C(=O)N[C@@H](CCCCN)C(=O)N[C@@H](CO)C(=O)N[C@@H](CC(=O)O)C(=O)NCC(=O)NCC(=O)N[C@@H](Cc1ccc(OP(=O)(O)O)cc1)C(=O)N[C@@H](CCSC)C(=O)N[C@@H](CC(=O)O)C(=O)N[C@@H](CCSC)C(=O)N[C@@H](CO)C(=O)O` (H-RQIKIWFQNRRMKWKKSDGG[pY]MDMS-OH), in test [9], the IC50 amounted to 30000 nM.

With `C=CC(C1=CC(=O)C(OC)=CC1=O)c1ccccc1` (stereo not given) [4-METHOXYDALBERGIONE], half-maximal inhibition in test [2] (IC50) was put at 2230 nM. As for `CC[C@@H](C)N(C)C(=O)c1cc2ccccc2c(-c2ccccc2Cl)n1` [(R)PK-11195], the Ki (as a rule, the equilibrium dissociation constant of an inhibitor or competing ligand from its target) in [10] is 0.4 nM. Consider `CN(C)CC[C@H](CSc1ccccc1)Nc1ccc(S(=O)(=O)NC(=O)c2ccc(N3CCN(Cc4ccccc4-c4ccc(Cl)cc4)CC3)cc2)cc1[N+](=O)[O-]` [ABT 737], for which the Ki in test [11] came to 0.8 nM.

Molecule `COc1ccc(S(=O)(=O)Nc2cccnc2Nc2ccc(O)cc2)cc1` [ABT-751] gave an IC50 in test [3] of 700 nM. `C[C@]12CCC(=O)C=C1CC[C@@H]1[C@@H]2[C@@H](O)C[C@]2(C=O)[C@@H](C(=O)CO)CC[C@@H]12` [ALDOSTERONE] showed an EC50 in test [7] of 1.3 nM. With `C=CCS[S+]([O-])CC=C` (stereo not given) [ALLICIN], in test [12], the IC50 turned out to be 11 nM. In test [13], `CO/C1=C\C(C)=C\[C@@H](C)[C@@H](O)[C@@H](C)C/C(C)=C/C=C/[C@H](OC)[C@@H]([C@@H](C)[C@@H](O)[C@H](C)[C@@]2(O)C[C@@H](O)[C@H](C)[C@@H](C(C)C)O2)OC1=O` [BAFILOMYCIN A1] displayed an IC50 of 0.06 nM. With `COc1ccc2cc3[n+](cc2c1OC)CCc1cc2c(cc1-3)OCO2` [BERBERINE], in [14], the half-inhibitory concentration (IC50) amounted to 12000 nM. `CC(C)=CCC/C(C)=C/Cc1c(O)cc2c(c1O)C(=O)C[C@@H](c1ccc(O)cc1)O2` [BONANNIONE A] gave an IC50 in [15] of 3700 nM. `C=C1C(=O)O[C@@H]2/C=C(\C)CC/C=C(\C)CC[C@@H]12` [COSTUNOLIDE]: inhibition in [2] was half-maximal at 2100 nM (IC50). In the case of `c1cc(-c2cnn3cc(-c4ccc(OCCN5CCCCC5)cc4)cnc23)ccn1` [DORSOMORPHIN], in [16], the affinity, expressed as Ki, was 109 nM. In [17], `O=c1c2ccccc2[se]n1-c1ccccc1` [EBSELEN] registered an IC50 of 180 nM. `O=C(O[C@@H]1Cc2c(O)cc(O)cc2O[C@@H]1c1cc(O)c(O)c(O)c1)c1cc(O)c(O)c(O)c1` [EPIGALOCATECHIN GALLATE] yielded an IC50 in test [18] of 30 nM. In [13], `CCN(CCO)CCCC(C)Nc1ccnc2cc(Cl)ccc12` (stereo not given) [HYDROXYCHLOROQUINE] showed an IC50 of 0.21 nM.

`CC(C(O)c1ccc(O)cc1)N1CCC(Cc2ccccc2)CC1` (stereo not given) [IFENPRODIL]: the half-maximal inhibitory concentration (IC50) in test [19] worked out at 0.73 nM. For `O=C1C[C@@H](c2ccc(O)cc2)Oc2cc(O)ccc21` [LIQUIRTIGENIN], the midpoint of inhibition in test [3], the IC50, lay at 340 nM. As to `COC(=O)C1=C(C)NC(C)=C(C(=O)OC)C1c1ccccc1[N+](=O)[O-]` [NIFEDIPINE], in [19], the IC50 stood at 0.5 nM. For the molecule `COc1cc2c(cc1OC)-c1c(OC)c(OC)cc3ccnc(c13)C2=O` [OXOGLAUCINE], the IC50 in test [19] was determined as 300 nM.

Take `Cc1[nH]c2ccccc2c1CCNCc1ccc(/C=C/C(=O)NO)cc1` [PANOBINOSTAT]: in [8], the IC50 was 5 nM. The molecule `COc1ccc2cc1Oc1ccc(cc1)C[C@@H]1c3cc(c(OC)cc3CCN1C)Oc1c(OC)c(OC)cc3c1[C@@H](C2)N(C)CC3` [PHAEANTHINE] returned an IC50 in test [15] of 179 nM.

In the case of `Oc1cc(O)c2c(c1)O[C@@]1(c3ccc(O)c(O)c3)Oc3cc(O)c4c(c3[C@@H]2[C@H]1O)O[C@H](c1ccc(O)c(O)c1)[C@@H](O)C4` [PROANTHOCYANIDIN A1], a half-maximal effect in test [7] (EC50) was put at 5100 nM. In test [20], `O=C(Nc1ccc(Oc2ccc(Cl)cc2)c(Cl)c1)c1cc(I)cc(I)c1O` [RAFOXANIDE] gave a 50% inhibitory concentration (IC50) of 13000 nM. Take `Oc1ccc(/C=C/c2cc(O)cc(O)c2)cc1` [RESVERATROL]: the IC50 in test [4] turned out to be 50000 nM. Molecule `Cc1nc(C(=O)NCC(=O)O)c(O)c2ccc(Oc3ccccc3)cc12` [ROXADUSTAT] registered an IC50 in test [5] of 10 nM. In turn, `COc1ccc(-c2cc(=O)c3c(OC)c(OC)c(OC)cc3o2)cc1OC` [SINENSETIN] gave an IC50 in test [15] of 3200 nM. In test [13], `NCCCCNCCCN` [SPERMIDINE] gave an IC50 of 112000 nM. In [2], `Cn1nccc1Nc1nccc(-c2cc3c(s2)C(C)(C)N(CCN2CCOCC2)C3=O)n1` [TEMUTERKIB] registered an IC50 of 5 nM. As for `CC(C)(C)c1ccc(C(O)CCCN2CCC(C(O)(c3ccccc3)c3ccccc3)CC2)cc1` (stereo not given) [TERFENADINE], the IC50 in test [21] turned out to be 1 nM.

For `Clc1ccc(C(Cn2ccnc2)OCc2ccsc2Cl)c(Cl)c1` (stereo not given) [TIOCONAZOLE], in [17], the IC50 is 1300 nM. Regarding `OC[C@H]1O[C@@H](Oc2ccc3c(c2)OC[C@H]2c4cc5c(cc4O[C@@H]32)OCO5)[C@H](O)[C@@H](O)[C@@H]1O` [TRIFOLIRHIZIN], in test [22], the concentration for half-maximal inhibition (IC50) was 506000 nM. The molecule `CC(C)Nc1cc(-c2c[nH]c(C(=O)N[C@H](CO)c3cccc(Cl)c3)c2)c(Cl)cn1` [ULIXERTINIB] had an IC50 in test [2] of 300 nM. As to `C[C@H]1CCCC(=O)CCC/C=C/c2cc(O)cc(O)c2C(=O)O1` [ZEARALENONE], the IC50 in test [21] was 500 nM.
